The results in this text go back to ChEMBL document CHEMBL4808205, “Discovery of TAK-041: a Potent and Selective GPR139 Agonist Explored for the Treatment of Negative Symptoms Associated with Schizophrenia” (J Med Chem, 2021).

The nature of series [1]: Cmax in rat at 1 mg/kg, iv or 2 mg/kg, po. The series is classed as ADME, organism-based. On the set-up: dose 2 mg/kg. Particulars: in vivo.
A short description of series [2]: Free drug concentration in BALB/c mouse brain. The series is classed as ADME, tissue-based. Conditions: in vivo.
Series [3] is described as follows: Volume of distribution in rat at 1 mg/kg, iv or 2 mg/kg, po. The series is classed as ADME, organism-based. Conditions: in vivo.
A short description of series [4]: Bioavailability in rat at 1 mg/kg, iv. It counts as ADME, organism-based. Particulars: in vivo, po 2 mg/kg vs iv 1 mg/kg.
A further series has as its system MDR1. The experiment in a line: Apparent permeability in dog MDCK-MDR1 cells. It counts as ADME, cell-based, Canis lupus familiaris.
Series [5] in a line: Oral bioavailability in mouse at 30 mg/kg after 1 hr. The series is classed as ADME, organism-based. Conditions: in vivo.
The subject of a further series is MDR1 (human). Briefly: Permeability across apical to basolateral side in pig LLC-PK1 cells expressing human MDR1. It counts as ADME, cell-based, Sus scrofa. Conditions: read-out: permeability.
The nature of series [6]: Lipophilicity, logD of compound. The series is classed as physicochemical. Particulars: octanol/water.

What is called Cmax is the highest concentration seen after dosing. Broadly, the bioavailability is dose-corrected exposure relative to a reference, in per cent. The low end stands for poor availability, the high end for good availability. For the molecule `COc1cccc2nnn(CC(=O)N[C@@H](C)c3ccc(C)cc3)c(=O)c12`, the concentration in series [1] peaked (Cmax) at 541 ng/mL. Further, in series [2], the “Drug uptake(free)” value was under 10 nM. This molecule also had a Vd in series [3] of 0.4 L/kg. This molecule came in with a bioavailability in series [4] of 50%.
In general, Papp refers to the rate of passage across a membrane or cell layer, normalised by area and donor concentration. As to `O=C(Cn1nnc2ccccc2c1=O)NCCc1ccc(Cl)cc1`, the Papp with MDR1 is 9.1 ×10⁻⁶ cm/s.
Regarding `Cc1ccc([C@H](C)NC(=O)Cn2nnc3ccccc3c2=O)cc1`, the bioavailability is 30% in series [5] and 27% in series [4]. The molecule further showed a Cmax in series [1] of 94 ng/mL. Also, in series [3], the Vd was 2.1 L/kg.
As usually defined, the logD is lipophilicity at a set pH, counting ionised and neutral species. Read a high logD as a more lipophilic compound. `C[C@H](NC(=O)Cn1nnc2ccccc2c1=O)c1ccc(OC(F)(F)F)cc1` [ZELATRIAZIN] returned a Cmax in series [1] of 961 ng/mL. Also, the “Drug uptake(free)” value in series [2] is reported as under 10 nM. Also, in the series with MDR1 (human), the Papp A→B came out at 18.3 ×10⁻⁶ cm/s. The Vd in series [3] turned out to be 1 L/kg. This molecule also gave a logD in series [6] of 2.4. The same molecule gave a bioavailability in series [4] of 100%.
With `COc1ccc2nnn(CC(=O)N[C@@H](C)c3ccc(C)cc3)c(=O)c2c1`, the Cmax in series [1] was found to be 15 ng/mL. The Vd in series [3] was found to be 0.6 L/kg. The molecule further showed a bioavailability in series [4] of 2%.
Molecule `C[C@H](NC(=O)Cn1nnc2ccccc2c1=O)c1ccc(C(F)(F)F)cc1` showed a Cmax in series [1] of 644 ng/mL. For the same molecule, the “Drug uptake(free)” value in series [2] was under 10 nM. The Vd in series [3] came to 1.4 L/kg. In series [4], this molecule returned a bioavailability of over 100%.
